Measured values as given in US6518423B1, “Benzopiperidine derivatives” (Eisai Co., Ltd., priority 1996, dated 2003).

CC(O)c1ncnc2ncn(Cc3ccc4c(c3)Nc3nccnc3S4)c12 (stereo not drawn) gave a melting point of 205 to 208 °C. With CCNC(=O)c1ccc2c(c1)Nc1nccnc1S2 the melting point was 274 to 275 °C. For CS(=O)(=O)NCCN1c2ccccc2Nc2nccnc21, the melting point was 218 to 222 °C. Work on Cl.N=C(Cc1ccc2c(c1)Nc1nccnc1S2)NCCO yielded a melting point of 174 to 175 °C. O=C([O-])C12CC[N+](Cc3ccc4c(c3)Nc3nccnc3S4)(CC1)CC2 gave a melting point of 229 to 230 °C. For OC(c1ccc2c(c1)Nc1nccnc1S2)c1cc(Br)ccc1F (stereo not drawn), the melting point was 202 to 203 °C. Work on O=C1OCCC1=C1CCN(Cc2ccc3c(c2)Nc2nccnc2S3)CC1 yielded a melting point of 159 to 162 °C. In the case of O=S(=O)(CCC1CCN(Cc2ccc3c(c2)Nc2nccnc2S3)CC1)N1CCOCC1, the melting point is reported as 193 to 194 °C. Work on c1ccc(CNc2ccc(NCc3ccc4c(c3)Nc3nccnc3S4)cn2)cc1 yielded a melting point of 208 to 211 °C. For CCOC(=O)C(C)(C)CCCCc1ccc(NCc2ccc3c(c2)Nc2nccnc2S3)cn1, the melting point was 160 to 164 °C. CC(=O)NCCC1CCN(Cc2ccc3c(c2)Nc2nccnc2S3)CC1 gave a melting point of 194 to 196 °C. Molecule O=C(Nc1ccccc1)N(Cc1ccc2c(c1)Nc1nccnc1S2)c1cccnc1 has a melting point of 208 to 210 °C. Molecule OC1C2CCCC1CN(Cc1ccc3c(c1)Nc1nccnc1S3)C2 (stereo not drawn) [Example 127] has a melting point of 189 to 192 °C. Work on c1cnn(Cc2ccc3c(c2)Nc2nccnc2S3)c1 yielded a melting point of 211 to 212 °C. Work on O=C(O)C=C1CCN(Cc2ccc3c(c2)Nc2nccnc2S3)CC1 yielded a melting point of 214 to 216 °C. In the case of OCC#Cc1ncnc2c1ncn2Cc1ccc2c(c1)Nc1nccnc1S2, the melting point is reported as 152 to 154 °C (dec.). O=C(O)CSc1ccc(C(O)c2ccc3c(c2)Nc2nccnc2S3)cn1 (stereo not drawn) showed a melting point of 65 to 70 °C. For CCOC(=O)/C=C/c1cccc(C(O)c2ccc3c(c2)Nc2nccnc2S3)n1 (stereo not drawn), the melting point was 160 to 170 °C (dec.). O=C(c1ccccc1)N(Cc1ccc2c(c1)Nc1nccnc1S2)c1cccnc1 gave a melting point of 178 to 182 °C. In the case of CN1c2ccc(CO)cc2Nc2nccnc21, the melting point is reported as 215 to 218 °C. CCOC(=O)c1ncn(Cc2ccc3c(c2)Nc2nccnc2S3)c1C showed a melting point of 222 to 224 °C. In the case of CN(C)C(=O)C#Cc1ccc2c(c1)Nc1nccnc1N2C, the melting point is reported as 203 to 205 °C. Work on c1cnc2c(n1)Nc1cc(CN3CCCCCC3)ccc1S2 yielded a melting point of 161 to 163 °C. With NC(=O)OC1CCN(Cc2ccc3c(c2)Nc2nccnc2S3)CC1 the melting point was 139 to 142 °C. CCNC(=O)N(Cc1ccc2c(c1)Nc1nccnc1S2)c1cccnc1 gave a melting point of 210 to 212 °C. Molecule O=S(=O)(c1ccccc1)N(Cc1ccc2c(c1)Nc1nccnc1S2)c1cccnc1 has a melting point of 205 to 260 °C. Work on CN(C)S(=O)(=O)NCC1C2CCCC1CN(Cc1ccc3c(c1)Nc1nccnc1S3)C2 (stereo not drawn) yielded a melting point of 215 to 219 °C. For Nc1c(N2CCN(Cc3ccc4c(c3)Nc3nccnc3S4)CC2)c(=O)c1=O, the melting point was 285 to 288 °C (dec.). COc1ccc(C(O)c2ccc3c(c2)Nc2nccnc2S3)cc1 (stereo not drawn) gave a melting point of 84 to 86 °C. In the case of CS(=O)(=O)/N=C/NCc1ccc2c(c1)Nc1nccnc1S2, the melting point is reported as 175 to 176 °C. CS(=O)(=O)N(Cc1ccc2c(c1)Nc1nccnc1S2)c1cccnc1 showed a melting point of 208 to 210 °C. Cl.OC1CN=C(Cc2ccc3c(c2)Nc2nccnc2S3)NC1 (stereo not drawn) showed a melting point of 156 to 163 °C. COCc1ccc2c(c1)Nc1nccnc1S2 showed a melting point of 189 to 192 °C. COc1ccc(NCc2ccc3c(c2)Nc2nccnc2S3)cn1 showed a melting point of 168 to 172 °C. c1csc(NCc2ccc3c(c2)Nc2nccnc2S3)n1 showed a melting point of 230 to 235 °C. Work on CN1c2ccc(C(O)c3nccs3)cc2Nc2nccnc21 (stereo not drawn) yielded a melting point of 203 to 204 °C. CCc1ncnc2c1ncn2Cc1ccc2c(c1)Nc1nccnc1S2 gave a melting point of 215 to 217 °C. O=C(O)COCC1CCN(Cc2ccc3c(c2)Nc2nccnc2S3)CC1 showed a melting point of 146 to 148 °C. Cc1ncn(Cc2ccc3c(c2)Nc2nccnc2S3)c1CO showed a melting point of 188 to 192 °C. O=C(O)C(=O)NC1CCN(Cc2ccc3c(c2)Nc2nccnc2S3)CC1 showed a melting point of 222 to 226 °C. With CC(C)(O)c1ncnc2c1ncn2Cc1ccc2c(c1)Nc1nccnc1O2 the melting point was 143 to 145 °C. CC(C)(O)CC1CCN(Cc2ccc3c(c2)Nc2nccnc2S3)CC1 showed a melting point of 187 to 188 °C. OC(c1ccc2c(c1)Nc1nccnc1S2)c1ncccn1 (stereo not drawn) showed a melting point of 105 to 107 °C. Work on CN(C=NC#N)Cc1ccc2c(c1)Nc1nccnc1S2 yielded a melting point of 197 to 198 °C. For O=C(O)c1ccc(Cc2nccn2Cc2ccc3c(c2)Nc2nccnc2S3)cc1, the melting point was 185 to 188 °C. With CCOC(=O)c1c(C)ncn1Cc1ccc2c(c1)Nc1nccnc1S2 the melting point was 194 to 196 °C. In the case of c1ccc(NCc2ccc3c(c2)Nc2nccnc2S3)nc1, the melting point is reported as 208 to 212 °C. c1ccn(Cc2ccc3c(c2)Nc2nccnc2S3)c1 showed a melting point of 197 to 198 °C. For N#CN=C(Cc1ccc2c(c1)Nc1nccnc1S2)NCCO, the melting point was 268 to 270 °C. With CS(=O)(=O)NCCc1cn(Cc2ccc3c(c2)Nc2nccnc2S3)cn1 the melting point was 173 to 176 °C. Work on COc1ccc2c(c1)N(C)c1nccnc1N2 yielded a melting point of 195 to 197 °C. Molecule O=C(O)Cc1ccc(OCC2CCN(Cc3ccc4c(c3)Nc3nccnc3S4)CC2)cc1 has a melting point of 225 to 230 °C. With O=C(O)CC1(O)C2CCCCCC1CN(Cc1ccc3c(c1)Nc1nccnc1S3)C2 (stereo not drawn) the melting point was 217 to 218 °C (dec.). For NC(=O)C1CCN(Cc2ccc3c(c2)Nc2nccnc2S3)CC1, the melting point was 225 to 228 °C. In the case of O=C(O)Cc1cccc(C2CCN(Cc3ccc4c(c3)Nc3nccnc3S4)CC2)c1, the melting point is reported as 130 to 132 °C. O=C(O)c1ccc(C2CCN(Cc3ccc4c(c3)Nc3nccnc3S4)CC2)cc1 gave a melting point of 265 to 268 °C. For Cl.c1ccc(CN2CCCN=C2Cc2ccc3c(c2)Nc2nccnc2S3)cc1, the melting point was 153 to 155 °C (dec.). Work on O=C(O)c1ccc(C(=O)c2nccn2Cc2ccc3c(c2)Nc2nccnc2S3)cc1 yielded a melting point of 242 to 246 °C. CCOC(=O)CSc1ccc(NCc2ccc3c(c2)Nc2nccnc2S3)cn1 gave a melting point of 118 to 122 °C. With CN1c2ccccc2Nc2nccnc21 the melting point was 229 to 231 °C. With O=C1NC(=O)C2(CCN(Cc3ccc4c(c3)Nc3nccnc3S4)CC2)N1 the melting point was > 275 °C. Molecule O=C(O)C1CCC(CNCc2ccc3c(c2)Nc2nccnc2S3)CC1 (stereo not drawn) has a melting point of 217 to 220 °C. In the case of Clc1nccn1Cc1ccc2c(c1)Nc1nccnc1S2, the melting point is reported as 231 to 232 °C. Cc1nccn1Cc1ccc2c(c1)Nc1nccnc1S2 gave a melting point of 244 to 246 °C. CC(C(=O)O)=C1CC2(CCN(Cc3ccc4c(c3)Nc3nccnc3S4)CC2)C1 showed a melting point of 251 to 252 °C. Molecule N#CN=C(Cc1ccc2c(c1)Nc1nccnc1S2)NO has a melting point of 253 to 256 °C. Work on O=C(O)CCC(=O)N1CCN(Cc2ccc3c(c2)Nc2nccnc2S3)CC1 yielded a melting point of 240 to 242 °C. With Cl.N=C(N)c1ccnc2c1Sc1ccccc1N2 the melting point was > 280 °C. CC(=NC#N)NCc1ccc2c(c1)Nc1nccnc1S2 gave a melting point of 275 to 277 °C. In the case of CC(=O)N(Cc1ccc2c(c1)Nc1nccnc1S2)c1cccnc1, the melting point is reported as 212 to 214 °C. O=C(O)CC1=CCN(Cc2ccc3c(c2)Nc2nccnc2S3)CC1 gave a melting point of 124 to 128 °C. For c1ccc2c(c1)nnn2Cc1ccc2c(c1)Nc1nccnc1S2, the melting point was 251 to 258 °C. In the case of Cc1ncn(Cc2ccc3c(c2)Nc2nccnc2S3)c1C(=O)O, the melting point is reported as 235 °C (dec.). For c1cncc(CNCc2ccc3c(c2)Nc2nccnc2S3)c1, the melting point was 104 to 106 °C. With O=C(O)C1C2CN(Cc3ccc4c(c3)Nc3nccnc3S4)CC21 (stereo not drawn) the melting point was > 275 °C. Molecule O=C(O)CCCCCCCCCCSc1ncnc2c1ncn2Cc1ccc2c(c1)Nc1nccnc1S2 has a melting point of 154 to 156 °C. In the case of CCc1ncnc2ncn(Cc3ccc4c(c3)Nc3nccnc3S4)c12, the melting point is reported as > 275 °C. In the case of O=C(O)C1CC2(CCN(Cc3ccc4c(c3)Nc3nccnc3S4)CC2)O1 (stereo not drawn), the melting point is reported as 178 to 180 °C. For O=C(CN1CCC(C(=O)O)CC1)NCc1ccc2c(c1)Nc1nccnc1S2, the melting point was 226 to 230 °C (dec.). Work on c1csc(Cc2ccc3c(c2)Nc2nccnc2S3)n1 yielded a melting point of 160 to 161 °C. For c1ccc2c(c1)CCN(Cc1ccc3c(c1)Nc1nccnc1S3)C2, the melting point was 188 to 191 °C. O=C(O)/C=C1/CCCN(Cc2ccc3c(c2)Nc2nccnc2S3)C1 showed a melting point of 216 to 220 °C. Molecule OC1C2CCCC1CN(Cc1ccc3c(c1)Nc1nccnc1S3)C2 (stereo not drawn) [Example 126] has a melting point of 215 to 219 °C. In the case of CON=C1CCN(Cc2ccc3c(c2)Nc2nccnc2S3)CC1, the melting point is reported as 142 to 143 °C. Molecule O=C(NCCc1cn(Cc2ccc3c(c2)Nc2nccnc2S3)cn1)c1ccccc1 has a melting point of 231 to 233 °C. In the case of CN1c2ccc(I)cc2Nc2nccnc21, the melting point is reported as > 275 °C. In the case of O=C(Nc1ccccc1)OCc1ccc2c(c1)Nc1nccnc1S2, the melting point is reported as 237 to 240 °C. NC(Cc1ccc2c(c1)Nc1nccnc1S2)=NO showed a melting point of 252 to 254 °C. In the case of O=S(=O)(NCCO)NC1CCN(Cc2ccc3c(c2)Nc2nccnc2S3)CC1, the melting point is reported as 164 to 166 °C. For COC(=O)CNS(=O)(=O)NC1CCN(Cc2ccc3c(c2)Nc2nccnc2S3)CC1, the melting point was 194 to 196 °C. In the case of OC(c1cncnc1)c1ccc2c(c1)Nc1nccnc1S2 (stereo not drawn), the melting point is reported as 218 to 221 °C. In the case of CN1c2ccc(C#CCO)cc2Nc2nccnc21, the melting point is reported as 241 to 243 °C. For CN(C)C(Cc1ccc2c(c1)Nc1nccnc1S2)=NC#N, the melting point was 247 to 249 °C (dec.). For O=C(Cc1ccc2c(c1)Nc1nccnc1S2)NCCCN1CCC(C(=O)O)CC1, the melting point was 143 °C (dec.). CC(=O)NCc1ccc2c(c1)Nc1nccnc1N2C gave a melting point of 247 to 249 °C. For N/C(=N\S(N)(=O)=O)C1CCN(Cc2ccc3c(c2)Nc2nccnc2S3)CC1, the melting point was 202 to 206 °C. With C/C(=C\c1ncn(Cc2ccc3c(c2)Nc2nccnc2S3)c1C)C(=O)O the melting point was > 290 °C. For OCC1(O)CCN(Cc2ccc3c(c2)Nc2nccnc2S3)CC1, the melting point was 170 to 173 °C. In the case of CNc1c(N2CCN(Cc3ccc4c(c3)Nc3nccnc3S4)CC2)c(=O)c1=O, the melting point is reported as > 300 °C. With COC(=O)CC1C2CCCC1CN(Cc1ccc3c(c1)N(C(=O)OC)c1nccnc1S3)C2 (stereo not drawn) the melting point was 106 to 108 °C. In the case of Cl.c1cnc2c(n1)Nc1cc(CC3=NCCCN3)ccc1S2, the melting point is reported as > 280 °C. Molecule CCOC(=O)CCCCSc1ncnc2ncn(Cc3ccc4c(c3)Nc3nccnc3S4)c12 has a melting point of 175 to 178 °C.
